Experiment [1] concerns Staphylococcus aureus. The experiment is described as follows: Antimicrobial activity against Staphylococcus aureus ATCC 25923 after 12 to 18 hrs by 2-fold serial dilution method. Format: functional.
The test system of experiment [2] is NCI-60 human cancer cell line panel (Homo sapiens). Put plainly: Anticancer activity against NCI 60 human cancer cell lines assessed as mean cell growth in single dose assay.

SMILES strings stand for the structures.

What is called MIC is the lowest concentration found to suppress growth. A higher MIC goes with a need for much substance. In experiment [1], `Cn1n[n+](C)c2c1C(=O)c1ccccc1C2=O.[Cl-]` yielded an MIC of 2 mg/L. Also, in experiment [2], the Activity is given as -46%.

The molecule `C[n+]1nn(Cc2ccccc2)c2c1C(=O)c1ccccc1C2=O.[Cl-]` showed an MIC in experiment [1] of 2 mg/L. Also, in experiment [2], the Activity is -37.9%.

The values are drawn from ChEMBL document CHEMBL3232814, “Synthesis and anticancer structure activity relationship investigation of cationic anthraquinone analogs” (2014).
